Measurements from ChEMBL document CHEMBL1201862, “PubChem BioAssay data set” (2004).
Values belong to the compound of their own block, whether it stands above or below them. The source made the active and inactive calls.

Assays:
Assay type in all cases: functional
[1] = target: T1, High affinity choline transporter 1 (Homo sapiens, UniProt Q9GZV3); experiment: human choline transporter blockers, potency – cell-based, 5-point CRC, membrane potential dye, dose response (AID 504840)
T1 sequence (Q9GZV3 whole entry): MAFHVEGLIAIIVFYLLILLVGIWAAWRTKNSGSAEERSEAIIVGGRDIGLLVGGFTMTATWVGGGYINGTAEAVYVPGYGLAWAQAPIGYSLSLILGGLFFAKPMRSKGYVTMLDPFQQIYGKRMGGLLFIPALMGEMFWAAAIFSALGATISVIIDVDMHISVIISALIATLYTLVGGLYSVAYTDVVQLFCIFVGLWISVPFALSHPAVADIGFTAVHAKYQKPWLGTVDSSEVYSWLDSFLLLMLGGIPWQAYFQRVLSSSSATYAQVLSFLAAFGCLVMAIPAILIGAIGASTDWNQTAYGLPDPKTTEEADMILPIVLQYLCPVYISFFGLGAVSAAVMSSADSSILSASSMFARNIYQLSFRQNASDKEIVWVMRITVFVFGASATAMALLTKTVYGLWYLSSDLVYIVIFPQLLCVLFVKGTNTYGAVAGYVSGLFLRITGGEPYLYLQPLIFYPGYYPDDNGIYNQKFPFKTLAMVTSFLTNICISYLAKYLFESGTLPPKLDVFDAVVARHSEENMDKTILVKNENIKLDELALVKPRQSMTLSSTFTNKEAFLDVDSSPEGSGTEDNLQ

[2] = target: T1, High affinity choline transporter 1; experiment: human choline transporter blockers, potency – cell-based, 10-point CRC, membrane potential dye, dose response (AID 588401);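 also: membrane potential dye fluorescence of choline-evoked depolarization via CHT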
[3] = target: T1, High affinity choline transporter 1; experiment: human choline transporter radiolabel uptake blockers – cell-based, 3H-choline uptake, CHT LV-AA trafficking mutant, CRC, dose response (AID 602208)
[4] = target: Ras and Rab interactor 1/Tyrosine-protein kinase ABL1 (Homo sapiens, UniProt P00519+Q13671);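 also: biochemical TR-FRET dose-response test measuring inhibition of binding between Rin1 and Abl proteins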
Aurora kinase A = target: T2, Aurora kinase A (Homo sapiens, UniProt O14965);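 also: value from the Navigating the Kinome kinase panel profiling, panel entry STK6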
T2 sequence (O14965 whole entry): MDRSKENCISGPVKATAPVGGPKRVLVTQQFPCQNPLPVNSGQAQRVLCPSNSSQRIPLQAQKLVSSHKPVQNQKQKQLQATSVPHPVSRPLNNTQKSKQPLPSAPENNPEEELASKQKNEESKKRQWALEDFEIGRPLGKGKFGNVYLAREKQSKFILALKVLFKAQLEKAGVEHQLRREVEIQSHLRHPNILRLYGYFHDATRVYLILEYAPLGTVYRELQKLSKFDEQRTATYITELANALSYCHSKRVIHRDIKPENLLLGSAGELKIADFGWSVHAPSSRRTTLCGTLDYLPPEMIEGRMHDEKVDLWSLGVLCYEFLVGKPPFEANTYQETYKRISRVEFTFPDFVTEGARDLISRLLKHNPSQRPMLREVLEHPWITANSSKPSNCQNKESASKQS

[5] = target: Vascular endothelial growth factor receptor 2 (Homo sapiens, UniProt P35968)
Aurora kinase B = Aurora kinase B (Homo sapiens, UniProt Q96GD4)
Aurora kinase B, sequence (Q96GD4 whole entry): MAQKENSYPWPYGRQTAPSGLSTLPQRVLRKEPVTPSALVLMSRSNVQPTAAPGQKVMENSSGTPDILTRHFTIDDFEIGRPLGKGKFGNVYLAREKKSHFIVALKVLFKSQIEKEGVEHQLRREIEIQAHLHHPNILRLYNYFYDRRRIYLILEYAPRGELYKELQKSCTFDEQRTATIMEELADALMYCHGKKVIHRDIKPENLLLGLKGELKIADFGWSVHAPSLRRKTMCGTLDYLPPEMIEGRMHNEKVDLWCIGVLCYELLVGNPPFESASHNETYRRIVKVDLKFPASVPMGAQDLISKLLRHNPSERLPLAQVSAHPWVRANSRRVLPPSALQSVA

Vascular endothelial growth factor receptor 2, sequence (P35968 whole entry): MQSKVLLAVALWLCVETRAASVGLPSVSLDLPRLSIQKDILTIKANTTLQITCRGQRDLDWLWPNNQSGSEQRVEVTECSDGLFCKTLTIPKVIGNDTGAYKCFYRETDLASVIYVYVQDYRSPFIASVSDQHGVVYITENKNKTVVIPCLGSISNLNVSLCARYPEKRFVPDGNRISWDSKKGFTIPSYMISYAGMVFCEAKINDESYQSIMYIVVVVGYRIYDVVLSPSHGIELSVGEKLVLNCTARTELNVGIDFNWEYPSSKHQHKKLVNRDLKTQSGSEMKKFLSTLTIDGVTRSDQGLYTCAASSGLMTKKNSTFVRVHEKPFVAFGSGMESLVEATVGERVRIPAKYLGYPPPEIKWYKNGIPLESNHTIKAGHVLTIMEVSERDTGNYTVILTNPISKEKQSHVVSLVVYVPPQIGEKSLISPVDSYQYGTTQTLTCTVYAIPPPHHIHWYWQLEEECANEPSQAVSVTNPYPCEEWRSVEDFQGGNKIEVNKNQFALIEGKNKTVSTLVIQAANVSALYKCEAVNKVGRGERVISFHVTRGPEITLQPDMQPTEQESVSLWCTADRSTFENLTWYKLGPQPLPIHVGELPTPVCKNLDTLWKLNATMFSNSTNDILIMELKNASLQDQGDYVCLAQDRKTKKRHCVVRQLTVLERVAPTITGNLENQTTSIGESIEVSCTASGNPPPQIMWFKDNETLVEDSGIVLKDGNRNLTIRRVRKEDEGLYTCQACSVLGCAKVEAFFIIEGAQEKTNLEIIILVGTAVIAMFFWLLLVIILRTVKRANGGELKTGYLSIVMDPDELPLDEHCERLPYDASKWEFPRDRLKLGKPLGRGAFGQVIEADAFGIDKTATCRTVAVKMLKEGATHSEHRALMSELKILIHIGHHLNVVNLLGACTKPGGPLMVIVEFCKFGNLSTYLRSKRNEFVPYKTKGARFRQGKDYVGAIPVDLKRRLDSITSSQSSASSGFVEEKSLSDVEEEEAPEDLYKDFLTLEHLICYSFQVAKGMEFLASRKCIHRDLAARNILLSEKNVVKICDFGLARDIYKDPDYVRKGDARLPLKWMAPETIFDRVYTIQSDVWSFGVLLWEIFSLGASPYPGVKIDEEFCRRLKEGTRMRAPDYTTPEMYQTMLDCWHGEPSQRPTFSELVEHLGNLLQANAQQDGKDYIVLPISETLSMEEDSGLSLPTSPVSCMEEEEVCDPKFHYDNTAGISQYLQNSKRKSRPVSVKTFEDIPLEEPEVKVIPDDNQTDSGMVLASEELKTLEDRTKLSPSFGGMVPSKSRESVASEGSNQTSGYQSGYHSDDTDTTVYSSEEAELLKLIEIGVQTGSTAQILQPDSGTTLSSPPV
Ras and Rab interactor 1/Tyrosine-protein kinase ABL1, sequence (P00519 whole entry): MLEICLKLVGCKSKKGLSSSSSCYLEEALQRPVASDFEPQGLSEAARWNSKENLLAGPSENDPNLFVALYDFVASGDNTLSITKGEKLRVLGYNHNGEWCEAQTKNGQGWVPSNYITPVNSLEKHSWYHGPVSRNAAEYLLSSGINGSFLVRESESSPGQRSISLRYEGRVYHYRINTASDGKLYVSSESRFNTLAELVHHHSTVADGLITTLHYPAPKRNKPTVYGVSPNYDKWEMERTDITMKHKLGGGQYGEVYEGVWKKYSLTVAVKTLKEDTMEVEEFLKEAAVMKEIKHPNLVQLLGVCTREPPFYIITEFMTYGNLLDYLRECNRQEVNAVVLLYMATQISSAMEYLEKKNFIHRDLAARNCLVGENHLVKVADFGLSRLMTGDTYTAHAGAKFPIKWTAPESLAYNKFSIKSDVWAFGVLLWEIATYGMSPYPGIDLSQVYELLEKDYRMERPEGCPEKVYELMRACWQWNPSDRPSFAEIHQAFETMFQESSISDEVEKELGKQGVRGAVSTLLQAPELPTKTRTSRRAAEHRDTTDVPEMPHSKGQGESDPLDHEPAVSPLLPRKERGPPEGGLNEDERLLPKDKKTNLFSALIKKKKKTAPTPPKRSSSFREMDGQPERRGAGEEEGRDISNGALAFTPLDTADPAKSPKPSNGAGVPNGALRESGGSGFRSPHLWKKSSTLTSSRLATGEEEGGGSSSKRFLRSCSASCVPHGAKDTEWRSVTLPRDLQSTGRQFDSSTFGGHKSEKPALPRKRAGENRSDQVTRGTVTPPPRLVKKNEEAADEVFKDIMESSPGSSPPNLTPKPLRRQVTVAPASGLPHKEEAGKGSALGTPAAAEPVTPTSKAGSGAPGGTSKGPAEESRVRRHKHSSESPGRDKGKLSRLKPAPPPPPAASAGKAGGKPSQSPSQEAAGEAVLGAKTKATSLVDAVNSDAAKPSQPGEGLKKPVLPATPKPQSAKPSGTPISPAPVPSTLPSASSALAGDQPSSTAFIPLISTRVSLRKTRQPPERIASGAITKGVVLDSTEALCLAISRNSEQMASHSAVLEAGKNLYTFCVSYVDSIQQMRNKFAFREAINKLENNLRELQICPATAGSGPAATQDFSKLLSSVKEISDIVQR
Ras and Rab interactor 1/Tyrosine-protein kinase ABL1, sequence (Q13671 whole entry): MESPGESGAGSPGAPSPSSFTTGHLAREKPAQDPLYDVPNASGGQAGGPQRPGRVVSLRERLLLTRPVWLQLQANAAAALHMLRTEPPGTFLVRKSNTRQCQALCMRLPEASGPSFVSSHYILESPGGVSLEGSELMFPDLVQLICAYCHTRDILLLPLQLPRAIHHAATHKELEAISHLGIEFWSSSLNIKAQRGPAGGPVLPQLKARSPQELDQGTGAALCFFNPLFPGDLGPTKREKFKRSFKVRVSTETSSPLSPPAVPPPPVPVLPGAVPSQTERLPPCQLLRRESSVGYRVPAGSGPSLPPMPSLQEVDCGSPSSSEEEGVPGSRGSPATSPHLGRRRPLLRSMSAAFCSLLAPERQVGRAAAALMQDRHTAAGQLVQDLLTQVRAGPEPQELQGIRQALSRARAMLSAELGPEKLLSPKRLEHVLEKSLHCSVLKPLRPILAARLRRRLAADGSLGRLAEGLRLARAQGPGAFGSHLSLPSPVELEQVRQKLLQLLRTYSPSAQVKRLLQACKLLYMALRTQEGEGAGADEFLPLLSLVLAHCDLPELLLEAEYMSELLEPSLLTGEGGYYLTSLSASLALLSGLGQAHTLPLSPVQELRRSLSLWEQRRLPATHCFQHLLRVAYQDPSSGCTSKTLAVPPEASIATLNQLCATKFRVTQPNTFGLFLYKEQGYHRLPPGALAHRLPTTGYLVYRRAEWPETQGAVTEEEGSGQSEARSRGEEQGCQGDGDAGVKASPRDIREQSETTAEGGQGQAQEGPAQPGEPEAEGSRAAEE

Structure (SMILES): CC(NC(=O)c1ccc(OC2CCN(Cc3ccccn3)CC2)cc1)c1ccccc1 (configuration not stated)
IC50 [1]: 1600 nM (active)
IC50 [2]: 1260 nM (active)
IC50 [3]: 1790 nM (active)

IC50 [4]: 2480 nM (active)
Structure (SMILES): N#Cc1ccccc1Sc1ccccc1C(=O)NCC(c1ccco1)N1CCCC1 (configuration not stated)

Ki (Aurora kinase A): 50.1 nM (active)
Ki [5]: 631 nM (active)
Ki (Aurora kinase B): 15.8 nM (active)
Structure (SMILES): COc1cc(Nc2ncc(C(F)(F)F)c(OC)n2)cc(OC)c1OC
